# Laboratory results reported in US20240115654A1, “INTRAVENOUS ADMINISTRATION OF ENGINEERED ANTIMICROBIAL AMPHIPHILIC PEPTIDES” (priority 2021, published 2024).
# Peptide text beside a SMILES is read from it.
# Settings: Cohort 4: 0.5 mg/kg IV 2-hr infusion (N = 6)
# Excerpt: All subjects who met eligibility criteria were confined to the clinical research unit from […] through Day 3. At admission, physical examination, vital signs, 12 lead ECG and weight were obtained, medical and medication history were updated if necessary, safety blood tests (hematology and chemistry), urinalysis, urine drug screen and an alcohol breath test were repeated and a urine pregnancy test was done for women of childbearing potential.
# At each dose level, there were 2 sentinel subjects, (1 active, 1 placebo), who were dosed at least 48 hours in advance of the other subjects in their respective group. Following review of safety data, including physical examination, vital signs, and review of adverse events from the first 2 subjects, enrolment in the cohort continued.
# A 12-lead ECG was performed on Day 1, within 60 minutes of infusion start (in triplicate), mid-way through the infusion, at the completion of the infusion, 30 minutes after completion of the infusion and at various timepoints following the end of the infusion.
# Vital signs were recorded within 60 minutes pre-dose, at the mid-point of the infusion and post dose vitals were assessed at completion of the infusion, 0.5, 1, 2, 3, 4, 6, 9, 12, 24 and 48 hours post dose, after at least 3 minutes of rest in supine position.
# Subjects returned to the study center 7 days after dosing, for the termination visit. A full physical examination, vital signs and weight were obtained, concomitant medications were updated if necessary, safety blood specimens (haematology and chemistry, PT and aPTT) and urine were collected for urinalysis and urine drug screening. A serum pregnancy test was done for women of childbearing potential and a 12-lead ECG was performed.
# In this study dose limiting toxicity (DLT) was defined as any drug related ≥Grade 3 AEs occurring despite optimal therapeutic interventions (which included but were not limited to allergic/hypersensitivity reactions, dermatological reactions/infusion site reactions, haematological toxicities such as neutropenia, thrombocytopenia and anaemia and clinical chemistry abnormalities) experienced up to Day 7 (Termination Visit).
# (§1) All subjects who received any amount of study drug were included in the safety analysis (Safety population).
# The study was a double blinded, randomized, placebo-controlled study. The placebo administered was 0.9% sodium chloride.
# On Day 1 (day of dosing), subjects were randomly assigned either peptide IV or Placebo IV. At each dose level, there were 2 sentinel subjects, (1 active, 1 placebo), who were dosed at least 48 hours in advance of the other subjects in their respective group. Following review of safety data, including physical examination, vital signs, and review of adverse events from the first 2 subjects, enrolment in the cohort continued. All subjects who met eligibility criteria were confined to the clinical research unit from Day −2 through Day 3. At admission, physical examination, vital signs, 12 lead ECG and weight were obtained, medical and medication history were updated if necessary, safety blood tests (hematology and chemistry), urinalysis, urine drug screen and an alcohol breath test were repeated and a urine pregnancy test was done for women of childbearing potential.
# as §1
smiles,measurement,value
CC(C)[C@H](NC(=O)[C@H](Cc1c[nH]c2ccccc12)NC(=O)[C@H](CCCNC(=N)N)NC(=O)[C@H](CCCNC(=N)N)NC(=O)[C@@H](NC(=O)[C@@H](NC(=O)[C@H](CCCNC(=N)N)NC(=O)[C@@H](NC(=O)[C@@H](NC(=O)[C@H](CCCNC(=N)N)NC(=O)[C@H](CCCNC(=N)N)NC(=O)[C@H](Cc1c[nH]c2ccccc12)NC(=O)[C@@H](NC(=O)[C@H](CCCNC(=N)N)NC(=O)[C@H](CCCNC(=N)N)NC(=O)[C@@H](NC(=O)[C@H](CCCNC(=N)N)NC(=O)[C@H](CCCNC(=N)N)NC(=O)[C@@H](NC(=O)[C@H](Cc1c[nH]c2ccccc12)NC(=O)[C@H](CCCNC(=N)N)NC(=O)[C@@H](N)CCCNC(=N)N)C(C)C)C(C)C)C(C)C)C(C)C)C(C)C)C(C)C)C(C)C)C(=O)N[C@@H](CCCNC(=N)N)C(=O)N[C@@H](CCCNC(=N)N)C(N)=O [SEQ ID NO: 1] (H-RRWVRRVRRVWRRVVRVVRRWVRR-NH2),"Number of Participants Reporting at least: One Dose-Limiting Toxicity, n (%)",0
same,"Number of Participants Reporting at least: One Related TEAE, n (%)",3 (50.0%)
same,"Number of Participants Reporting at least: One Serious TEAE, n (%)",0
same,"Number of Participants Reporting at least: One TEAE Leading to Study Drug Discontinuation, n (%)",0
same,"Number of Participants Reporting at least: One TEAE with Common Terminology Criteria for Adverse Events (CTCAE) Toxicity ≥ Grade 3, n (%)",0
same,"Number of Participants Reporting at least: One TEAE, n (%)",6 (100%)
same,"One Related TEAE, m",4
same,"One TEAE, m",15
same,"Participants With At Least 1 TEAE, n (%)",6 (100%)
same,"Participants With At Least 1 TEAE, occurrences m",15
same,"Participants With At Least 1 Treatment-Related TEAE, n (%)",3 (50.0%)
same,"Participants With At Least 1 Treatment-Related TEAE, occurrences m",4
same,"TEAE Severity Grade 1, m",12
same,"TEAE Severity Grade 1, n (%)",6 (100%)
same,"TEAE Severity Grade 2, m",3
same,"TEAE Severity Grade 2, n (%)",2 (33.3%)
same,"TEAE by system organ class: Blood and Lymphatic System Disorders, participants n (%)",0
same,"TEAE by system organ class: Gastrointestinal Disorders, occurrences m",2
same,"TEAE by system organ class: Gastrointestinal Disorders, participants n (%)",1 (16.7%)
same,"TEAE by system organ class: General Disorders and Administration Site Conditions, occurrences m",2
same,"TEAE by system organ class: General Disorders and Administration Site Conditions, participants n (%)",2 (33.3%)
same,"TEAE by system organ class: Infections and Infestations, occurrences m",1
same,"TEAE by system organ class: Infections and Infestations, participants n (%)",1 (16.7%)
same,"TEAE by system organ class: Injury, Poisoning, and Procedural Complications, occurrences m",4
same,"TEAE by system organ class: Injury, Poisoning, and Procedural Complications, participants n (%)",3 (50.0%)
same,"TEAE by system organ class: Musculoskeletal and Connective Tissue Disorders, occurrences m",2
same,"TEAE by system organ class: Musculoskeletal and Connective Tissue Disorders, participants n (%)",2 (33.3%)
same,"TEAE by system organ class: Nervous System Disorders, occurrences m",1
same,"TEAE by system organ class: Nervous System Disorders, participants n (%)",1 (16.7%)
same,"TEAE by system organ class: Respiratory, Thoracic, and Mediastinal disorders, participants n (%)",0
same,"TEAE by system organ class: Skin and Subcutaneous Tissue Disorders, occurrences m",3
same,"TEAE by system organ class: Skin and Subcutaneous Tissue Disorders, participants n (%)",2 (33.3%)
same,"TEAE by system organ class: Vascular Disorders, participants n (%)",0
same,"TEAE severity Grade 1, occurrences m",12
same,"TEAE severity Grade 1, participants n (%)",6 (100%)
same,"TEAE severity Grade 2, occurrences m",3
same,"TEAE severity Grade 2, participants n (%)",2 (33.3%)
same,"TEAE severity Grade 3, participants n (%)",0
same,"TEAE severity Grade 4, participants n (%)",0
same,"TEAE severity Grade 5, participants n (%)",0
same,"Treatment-related TEAE: Abdominal distension, occurrences m",1
same,"Treatment-related TEAE: Abdominal distension, participants n (%)",1 (16.7%)
same,"Treatment-related TEAE: Blood and Lymphatic System Disorders, participants n (%)",0
same,"Treatment-related TEAE: Constipation, participants n (%)",0
same,"Treatment-related TEAE: Diarrhea, occurrences m",1
same,"Treatment-related TEAE: Diarrhea, participants n (%)",1 (16.7%)
same,"Treatment-related TEAE: Dizziness, participants n (%)",0
same,"Treatment-related TEAE: Feeling hot, participants n (%)",0
same,"Treatment-related TEAE: Gastrointestinal Disorders, occurrences m",2
same,"Treatment-related TEAE: Gastrointestinal Disorders, participants n (%)",1 (16.7%)
same,"Treatment-related TEAE: General Disorders and Administration Site Conditions, occurrences m",2
same,"Treatment-related TEAE: General Disorders and Administration Site Conditions, participants n (%)",2 (33.3%)
same,"Treatment-related TEAE: Headache, participants n (%)",0
same,"Treatment-related TEAE: Infusion related reaction, participants n (%)",0
same,"Treatment-related TEAE: Infusion site discomfort, participants n (%)",0
same,"Treatment-related TEAE: Infusion site pain, participants n (%)",0
same,"Treatment-related TEAE: Infusion site reaction, occurrences m",1
same,"Treatment-related TEAE: Infusion site reaction, participants n (%)",1 (16.7%)
same,"Treatment-related TEAE: Infusion site swelling, participants n (%)",0
same,"Treatment-related TEAE: Injury, Poisoning, and Procedural Complications, participants n (%)",0
same,"Treatment-related TEAE: Macule, participants n (%)",0
same,"Treatment-related TEAE: Musculoskeletal and Connective Tissue Disorders, participants n (%)",0
same,"Treatment-related TEAE: Myalgia, participants n (%)",0
same,"Treatment-related TEAE: Nervous system disorders, participants n (%)",0
same,"Treatment-related TEAE: Oropharyngeal pain, participants n (%)",0
same,"Treatment-related TEAE: Orthostatic hypotension, participants n (%)",0
same,"Treatment-related TEAE: Phlebitis, participants n (%)",0
same,"Treatment-related TEAE: Respiratory, Thoracic, and Mediastinal disorders, participants n (%)",0
